Laboratory results taken from article PMC12481929, “Oral delivery of teriparatide utilizing biocompatible transferrin-engineered MOF nanoparticles for osteoporosis therapy” (Materials Today Bio, 2025).

Columns and labels:
[1] = In vivo pharmacokinetics, serum TRP by ELISA; conditions: osteoporotic mice
Description: The pharmacokinetics and pharmacodynamics of M@P@T NPs were evaluated using the osteoporosis mice model. Mice were randomly divided into three experimental groups, with five mice per group: TRP SC, M@P, and M@P@T. M@P NPs (200 μg kg^−1) and M@P@T NPs (200 μg kg^−1) were administered by oral gavage, while TRP (20 μg kg^−1) was injected subcutaneously. Serum TRP concentrations were measured using an ELISA kit. Blood samples were collected at 0, 0.5, 1, 1.5, 2, 3, 6, 8, and 12 h post-administration to determine TRP concentration. The area under the serum TRP concentration−time curve (AUC) was calculated to determine the relative bioavailability of M@P@T. The pharmacokinetic parameters of M@P@T were then compared to those of TRP SC and M@P groups.

[2] = tested on: osteoporosis model mice (OVX); experiment: New bone formation in vivo, micro-CT of femurs; conditions: one month, M@P@T 200 μg kg^−1 oral, TRP 20 μg kg^−1 SC daily
Description: This study was approved by the Animal Ethics Committee of Wuhan University (ethics number WP20230395), and all animal experiments were conducted in accordance with the Regulations on the Management of Experimental Animals in China and the guidelines of the Committee for Animal Care and Use at Wuhan University. In this study, 6-week-old female C57 mice (purchased from Beijing HFK Bioscience Co., Ltd.) were randomly divided into five groups (Sham, OVX, M@P, M@P@T, and TRP SC). Bilateral ovariectomy was performed via a dorsal incision to establish an osteoporosis model. In the Sham group, the same volume of fat tissue was removed bilaterally. After surgery, the mice were regularly given penicillin and pain medication. All mice were housed in a comfortable environment at 22–25 °C and […] and had free access to food and water. The successful construction of the osteoporosis model was confirmed two months after surgery via micro–computed tomography (micro-CT).
To validate the in vivo efficacy of the NPs, we measured various bone parameters related to the formation of new bone and its internal structure using micro-CT (SkyScan 1276) following the ASBMR reporting standards. […] The efficacy of new bone formation was assessed by comparing these parameters determined from the control and treatment groups.

## CC[C@H](C)[C@H](NC(=O)[C@H](CCC(=O)O)NC(=O)[C@H](CO)NC(=O)[C@@H](NC(=O)[C@@H](N)CO)C(C)C)C(=O)N[C@@H](CCC(N)=O)C(=O)N[C@@H](CC(C)C)C(=O)N[C@@H](CCSC)C(=O)N[C@@H](Cc1cnc[nH]1)C(=O)N[C@@H](CC(N)=O)C(=O)N[C@@H](CC(C)C)C(=O)NCC(=O)N[C@@H](CCCCN)C(=O)N[C@@H](Cc1cnc[nH]1)C(=O)N[C@@H](CC(C)C)C(=O)N[C@@H](CC(N)=O)C(=O)N[C@@H](CO)C(=O)N[C@@H](CCSC)C(=O)N[C@@H](CCC(=O)O)C(=O)N[C@@H](CCCN=C(N)N)C(=O)N[C@H](C(=O)N[C@@H](CCC(=O)O)C(=O)N[C@@H](Cc1c[nH]c2ccccc12)C(=O)N[C@@H](CC(C)C)C(=O)N[C@@H](CCCN=C(N)N)C(=O)N[C@@H](CCCCN)C(=O)N[C@@H](CCCCN)C(=O)N[C@@H](CC(C)C)C(=O)N[C@@H](CCC(N)=O)C(=O)N[C@@H](CC(=O)O)C(=O)N[C@H](C(=O)N[C@@H](Cc1cnc[nH]1)C(=O)N[C@@H](CC(N)=O)C(=O)N[C@@H](Cc1ccccc1)C(=O)O)C(C)C)C(C)C [TRP, teriparatide]
[1]; 20 μg kg^−1 SC
  time to return to the baseline level: ≤ 2 h
[1]; mouse, in vivo, 20 ug/kg, 20 μg kg^−1 SC, read-out: time of peak plasma concentration of TRP
  Tmax: 30 min
[1]; mouse, sc, 20 ug/kg, n = 5, TRP 20 µg/kg s.c., M@P and M@P@T 200 µg/kg oral, serum TRP ELISA, 0-12 h, mean ± SD
  AUC(0-t): 0.117 ± 0.0112 ng·h/mL
[1]; n = 5, relative to TRP 20 µg/kg s.c., oral 200 µg/kg
  F, relative bioavailability: 100%
[2]
  new bone formation (3D reconstruction): more new bone formation than the other groups
